Measured values: patent US20240374566A1, “METHODS AND COMPOSITIONS FOR THE TREATMENT OF CANCER” (Lankenau Institute for Medical Resesarch, priority 2017, published 2024)
“Also recorded” adds a separate entry of the source.

Legend:
[1] = tested on: allogeneic mouse concepti; details: in vivo; cited from earlier work
[2] = mouse, rat and dog; cited from earlier work
human xenograft tumor = details: mice; cited from earlier work
[3] = tested on: lymphoma, lung cancer and sarcoma; details: cited from earlier work
4T1 pulmonary metastases = experiment: Neovascular density (anti-Cav1 staining) within 4T1 lung metastases after treatment; format: in vivo, mouse
Procedure: Pulmonary metastasis studies with the 4T1 mouse mammary carcinoma-derived cell line (Aslakson et al. (1992) Cancer Res., 52:1399-1405) were carried out by injecting 1×10^4 cells in 50 μl serum free medium into the number 4 mammary fatpad to establish an orthotopic tumor which then spontaneously metastasized to the lungs. For visualization of the pulmonary metastasis burden, lungs were inflated with 15% India ink dye, washed, and bleached in Fekete's solution. For immunofluorescence detection of pulmonary metastasis vasculature, lungs were inflated with 50% OCT and frozen in OCT blocks followed by 4 μm sectioning using the CryoJane tape transfer system. Blood vessels within the metastatic nodules were visualized by fluorescence staining with rabbit anti-mouse Caveolin1 polyclonal antibody (Cat. #3238S, Cell Signaling Technology, Boston, MA). For quantitatively evaluating vessel density within the metastatic nodules, multiple fields were acquired per mouse lung on a Zeiss inverted microscope with 40× objective. The pixel density corresponding to the positive Cav1 signal per field was determined in Adobe Photoshop, and these values were then averaged to determine the overall mean value per mouse. For IDO1 inhibitor treatment studies, mice bearing established metastases at 3.5 weeks following 4T1 engraftment were administered 50 mg/kg epacadostat (ChemieTek; Indianapolis, IN) in 100 μl vehicle (3% N,N-dimethylacetamide, 10% 2-hydroxylpropyl-β-cyclodextrin) by oral gavage b.i.d. (twice daily) over 72 hours at which point the animals were euthanized for analysis. Positive control animals were administered a single intraperitoneal (i.p.) injection of 50 mg/kg cyclophosphamide (Baxter; Deefield, IL) in 100 μl sterile saline and euthanized 72 hours later for analysis. […]

[4] = tested on: large, vascularized tumors; details: requires IFNγ receptor expression on normal host cells; cited from earlier work
4T1 lung metastases = experiment: Hypoxyprobe staining of hypoxic regions within 4T1 lung metastases; format: in vivo, mouse; details: epacadostat 50 mg/kg oral gavage b.i.d. over 72 hours
Procedure: For IDO1 inhibitor treatment studies looking at tumor hypoxia, mice bearing established metastases at 3.5 weeks following 4T1 engraftment were administered either 50 mg/kg epacadostat (ChemieTek; Indianapolis, IN) in 100 μl vehicle (3% N,N-dimethylacetamide, 10% 2-hydroxylpropyl-β-cyclodextrin) by oral gavage b.i.d. (twice daily) over 72 hours, or 400 mg/kg indoximod (Sigma-Aldrich; St. Louis, MO) in 100 μl vehicle (0.5% Tween 80/0.5% Methylcellulose v/v in water) by oral gavage b.i.d. (twice daily) over 72 hours.
For visualizing regions of hypoxia within 4T1 lung metastases, the Hypoxyprobe™ Green Kit (Hydroxyprobe, Inc.; Burlington, MA) was used as per the manufacturer's instructions. 1 hour prior to euthanasia, mice were injected intravenously with 60 mg/kg Hypoxyprobe™ (pimonidazole HCl). Lung sections were stained with the FITC-conjugated mouse IgG1 monoclonal antibody (4.3.11.3) provided by the supplier that specifically binds to protein adducts of pimonidazole.

tumors = details: clinical study; cited from earlier work

Cn1cc(C[C@H](N)C(=O)O)c2ccccc21 [1MT, 1-methyl-tryptophan]
rejection of allogeneic mouse concepti [1]: could elicit T cell-dependent rejection of allogeneic mouse concepti

Cn1cc(-c2ccc3c(c2)CCN3C(=O)Cc2cccc(C(F)(F)F)c2)c2c(N)ncnc21 [GSK2606414]
blood clearance [2]: low to moderate
oral bioavailability [2]: good

Cc1cccc(CC(=O)N2CCc3c2ccc(-c2cn(C)c4ncnc(N)c24)c3F)n1 [GSK2656157]
human xenograft tumor growth (human xenograft tumor): delay of various human xenograft tumor growths
weight loss and effect on pancreatic insulin production (human xenograft tumor): without significant weight loss and/or effect on pancreatic insulin production
blood clearance [2]: low to moderate
oral bioavailability [2]: good

C=CC1=C(C)c2cc3[n-]c(cc4[n-]c(cc5nc(cc1n2)C(C)=C5C=C)c(C)c4CCC(=O)O)c(CCC(=O)O)c3C.[Zn+2] [ZnPPIX, zinc protoporphyrin IX]
antitumor effect in mice [3]: effective in reducing lymphoma, lung cancer and sarcoma

O=P1(N(CCCl)CCCl)NCCCO1 (centres unmarked) [cyclophosphamide]
metastatic tumor neovascularization, positive control (in words) (4T1 pulmonary metastases; single i.p. injection of 50 mg/kg, evaluated 72 hours later, compared with the effect of epacadostat): comparable
tumor rejection [4]: immune-dependent rejection of large, vascularized tumors

NS(=O)(=O)NCCNc1nonc1C(=NO)Nc1ccc(F)c(Br)c1 [epacadostat]
reduction in metastatic tumor neovascularization relative to vehicle alone (4T1 pulmonary metastases; 50 mg/kg oral gavage b.i.d. over 72 hours, established 4T1 pulmonary metastases 3.5 weeks after engraftment, P<0.01): 3.2 fold
metastatic tumor neovascularization relative to vehicle (in words) (4T1 pulmonary metastases; epacadostat 50 mg/kg oral gavage b.i.d. over 72 hours, established 4T1 pulmonary metastases): reduced level of neovascularization; also recorded: clear reduction in metastatic tumor neovascularization
hypoxia in metastatic tumor (Hypoxyprobe staining) relative to vehicle (4T1 lung metastases): clear evidence of elevated hypoxia

Cn1cc(C[C@@H](N)C(=O)O)c2ccccc21 [indoximod, 1-methyl-D-tryptophan]
sensitization of tumors to salvage chemotherapy (tumors): appeared to sensitize tumors to salvage chemotherapy
